Consider 36 molecules from paper PMC9698057, “Insights into Antimalarial Activity of N-Phenyl-Substituted Cinnamanilides” (Molecules, 2022).

Data set [1] relates to Plasmodium falciparum 3D7/MRA-102. Description: In vitro antiplasmodial activity. In kind it is cell-based. The note with it: for IC50: chloroquine-sensitive strain 3D7/MRA-102, 48 h incubation, n = 3, read-out: Pf IC50 ± SD; for antiplasmodial activity in words: P. falciparum 3D7/MRA-102.
Data set [2] concerns Mycobacterium tuberculosis H37Ra/ATCC 25177. More on the design: method as in PMID 30087309, PMID 32916979. The note with it: M. tuberculosis H37Ra/ATCC 25177; cited from earlier work.
The nature of data set [3]: Lipophilicity determination by RP-HPLC (log of capacity factor k). Format: physicochemical. The note with it: C18, isocratic methanol 72%/water 28%. As for the experimental part: Among the important parameters characterizing the physicochemical properties of the compounds, we studied the lipophilicity and electronic relations in the molecule. […] The lipophilicity was determined using RP-HPLC as the logarithm of capacity factor k. The retention times of individual compounds were determined under isocratic conditions, with methanol as an organic modifier in the mobile phase using end-capped non-polar C18 stationary RP columns. In addition, the lipophilicity expressed as log P and Clog P was calculated using two commercially available programs: ACD/Percepta ver.
A chromatographic column Symmetry® C18 5 μm, 4.6 × 250 mm, Part No. W21751W016 (Waters Corp., Milford, MA, USA) was used. The HPLC separation process was monitored by the EZ CHROM Elite® software ver. 3.2.0 (Hitachi High Technologies America). The total flow of the column was 1.0 mL/min, injection 10 μL, column temperature 40 °C, and sample temperature 10 °C. The detection wavelength 214 nm was chosen. A KI methanolic solution was used for the dead time (tD) determination. Retention times (tR) were measured in minutes. […] The capacity factors were calculated according to the formula k = (tR − tD)/tD, where tR is the retention time of the solute and tD is the dead time obtained using an unretained analyte. Each experiment was repeated three times.

The subject of another data set is THP1-Blue™ NF-κB cells. The note with it: read-out: cytotoxicity IC50; human monocytic leukemia cell line THP1-Blue™ NF-κB; cited from earlier work.
The mark [4] stands for this setting: Plasmodium falciparum, 3D7, 48 h.

The structures appear in SMILES notation. Several values for one entry are separate records, joined by “and”; a condition that tells them apart may be missing. Equal values may be shown once. Read-outs that look alike come from different tables or passages of the source.

As to `Cc1ccc(NC(=O)/C=C/c2ccccc2)cc1` [Compound 3], the IC50 (as a rule, the concentration needed to halve the response being measured) in data set [1] (setting [4]) is over 35 µM. Moreover, the “Mtb MIC” value in data set [2] is 134 µM. This molecule registered a log k in data set [3] of 0.2640.

With `O=C(/C=C/c1ccccc1)Nc1ccc(F)cc1C(F)(F)F` [Compound 29], in data set [1] (setting [4]), the 50% inhibitory concentration (IC50) is over 35 µM. Also, the “Mtb MIC” value in data set [2] was over 414 µM. In addition, in data set [3], the log k stood at 0.1607.

For the molecule `O=C(/C=C/c1ccccc1)Nc1ccc(Cl)cc1Cl` [Compound 8], in data set [1], the “antiplasmodial activity in words” value was “inactive”. Also, the concentration for half-maximal inhibition (IC50) in data set [1] (setting [4]) was over 35 µM. This molecule also came in with a log k in data set [3] of 0.5278.

On to `O=C(/C=C/c1ccccc1)Nc1cc(C(F)(F)F)ccc1Br` [Compound 28], for which the IC50 in data set [1] (setting [4]) is over 35 µM. The “Mtb MIC” value in data set [2] is over 348 µM. The molecule further came in with a log k in data set [3] of 0.5561.

In the case of `O=C(/C=C/c1ccccc1)Nc1c(F)cc(F)cc1F` [Compound 32, (2E)-3-phenyl-N-(2,4,6-trifluorophenyl)-prop-2-enamide], the concentration for half-maximal inhibition (IC50) in data set [1] (setting [4]) was over 35 µM. In data set [2], the “Mtb MIC” value is over 462 µM. The log k in data set [3] is reported as −0.0831.

Regarding `O=C(/C=C/c1ccccc1)Nc1ccc(Cl)cc1Br` [Compound 26], the IC50 in data set [1] (setting [4]) was over 35 µM. The “Mtb MIC” value in data set [2] was over 383 µM. In data set [3], this molecule yielded a log k of 0.5476.

In the case of `O=C(/C=C/c1ccccc1)Nc1c(Cl)cccc1Cl` [Compound 10], the IC50 in data set [1] (setting [4]) was over 35 µM. Also, in data set [2], the “Mtb MIC” value is 876 µM. In data set [3], this molecule had a log k of 0.0632.

For `O=C(/C=C/c1ccccc1)Nc1cccc(C(F)(F)F)c1` [Compound 6], the figures for the IC50 (in data set [1] (setting [4]); in the data set on THP1-Blue™ NF-κB cells) were over 35 µM and 11.6 ± 1.13 µM, respectively. Besides, the “Mtb MIC” value in data set [2] is 27.5 µM. For the same molecule, in data set [3], the log k stood at 0.4859.

As for `O=C(/C=C/c1ccccc1)Nc1ccc(Br)c(F)c1` [Compound 21], in data set [1] (setting [4]), the IC50 came to 10.3 ± 4.6 µM. Further, the “Mtb MIC” value in data set [2] is over 414 µM.

For `O=C(/C=C/c1ccccc1)Nc1ccc(Cl)cc1C(F)(F)F` [Compound 30], in data set [1] (setting [4]), the IC50 was over 35 µM. Moreover, the “Mtb MIC” value in data set [2] was over 394 µM. This molecule also registered a log k in data set [3] of 0.4113.

Regarding `O=C(/C=C/c1ccccc1)Nc1ccc(Br)c(Cl)c1` [Compound 25], the IC50 in data set [1] (setting [4]) is 8.2 ± 4.7 µM; in the data set with THP1-Blue™ NF-κB cells it was 6.5 ± 1 µM. Also, the “Mtb MIC” value in data set [2] is over 383 µM. In data set [3], the log k is 0.6611.

Consider `O=C(/C=C/c1ccccc1)Nc1cc(F)c(F)c(F)c1` [Compound 33], for which, in data set [1] (setting [4]), the IC50 was 4.3 ± 2.4 µM. Further, in data set [2], the “Mtb MIC” value was over 462 µM. The same molecule displayed a log k in data set [3] of 0.4893.

Turning to `Cc1ccc(C)c(NC(=O)/C=C/c2ccccc2)c1` [Compound 7], the IC50 in data set [1] (setting [4]) was over 35 µM. In data set [2], the “Mtb MIC” value is 254 µM. This molecule returned a log k in data set [3] of 0.2691.

For the molecule `O=C(/C=C/c1ccccc1)Nc1c(Br)cc(F)c(Cl)c1Br` [Compound 37], the IC50 in data set [1] (setting [4]) was over 35 µM. In addition, in data set [2], the “Mtb MIC” value is over 298 µM. Further, the log k in data set [3] is on record as 0.3139.

Turning to `O=C(/C=C/c1ccccc1)Nc1ccc(C(F)(F)F)c(F)c1` [Compound 22], the IC50 in data set [1] (setting [4]) worked out at 9.3 ± 5.3 µM. Further, the “Mtb MIC” value in data set [2] is over 414 µM. The molecule also yielded a log k in data set [3] of 0.5789.

Consider `O=C(/C=C/c1ccccc1)Nc1cc(C(F)(F)F)cc(C(F)(F)F)c1` [Compound 15, (2E)-N-[3,5-bis(trifluoromethyl)phenyl]-3-phenylprop-2-enamide], for which the IC50 is 6.5 ± 3.6 µM in data set [1] (setting [4]) and 2.17 ± 1.19 µM in the data set on THP1-Blue™ NF-κB cells. In data set [2], the “Mtb MIC” value is 22.3 µM. Further, the log k in data set [3] was 0.9814.

For `O=C(/C=C/c1ccccc1)Nc1cc(Cl)cc(Cl)c1` [Compound 12], the figures for the IC50 (in data set [1] (setting [4]); with THP1-Blue™ NF-κB cells) were over 35 µM and 2.43 ± 1.06 µM, respectively. In addition, the “Mtb MIC” value in data set [2] is 27.4 µM. Further, the log k in data set [3] turned out to be 0.8155.

Turning to `O=C(/C=C/c1ccccc1)Nc1cc(Br)ccc1F` [Compound 20], in data set [1] (setting [4]), the IC50 is over 35 µM. The “Mtb MIC” value in data set [2] was 199 µM. The log k in data set [3] was determined as 0.4875.

Turning to `O=C(/C=C/c1ccccc1)Nc1cc(Cl)c(Cl)cc1Cl` [Compound 34], the IC50 in data set [1] (setting [4]) was over 35 µM. The molecule further displayed a log k in data set [3] of 0.8373.

`O=C(/C=C/c1ccccc1)Nc1ccc(Br)cc1Br` [Compound 13]: the “antiplasmodial activity in words” value in data set [1] is “inactive”. In data set [1] (setting [4]), the half-maximal inhibitory concentration (IC50) was over 35 µM. For the same molecule, in data set [2], the “Mtb MIC” value is over 339 µM. Further, the log k in data set [3] was found to be 0.6152.

Regarding `O=C(/C=C/c1ccccc1)Nc1cc(Cl)ccc1F` [Compound 19], the IC50 in data set [1] (setting [4]) is 16 ± 4.2 µM. In addition, the “Mtb MIC” value in data set [2] is over 465 µM. Besides, in data set [3], the log k was 0.36 and 0.3692.

On to `O=C(/C=C/c1ccccc1)Nc1ccc([N+](=O)[O-])cc1C(F)(F)F` [Compound 17], for which, in data set [1] (setting [4]), the IC50 was over 35 µM. Also, the “Mtb MIC” value in data set [2] is over 381 µM. For the same molecule, the log k in data set [3] turned out to be 0.3794.

For the molecule `O=C(/C=C/c1ccccc1)Nc1ccc(Cl)c(Cl)c1` [Compound 11], the IC50 was over 35 µM in data set [1] (setting [4]) and 6.28 ± 2.32 µM in the data set on THP1-Blue™ NF-κB cells. Moreover, the “Mtb MIC” value in data set [2] was 27.4 µM. In data set [3], this molecule showed a log k of 0.6821.

On to `O=C(/C=C/c1ccccc1)Nc1cc(Cl)ccc1Cl` [Compound 9], for which the IC50 in data set [1] (setting [4]) was over 35 µM. Moreover, the “Mtb MIC” value in data set [2] was 876 µM. For the same molecule, the log k in data set [3] is 0.5799.

Regarding `O=C(/C=C/c1ccccc1)Nc1ccc([N+](=O)[O-])c(C(F)(F)F)c1` [Compound 18, (2E)-N-[4-nitro-3-(trifluoromethyl)phenyl]-3-phenylprop-2-enamide], the IC50 in data set [1] (setting [4]) amounted to 2.2 ± 1.9 µM. In addition, the “Mtb MIC” value in data set [2] was over 381 µM. Also, the log k in data set [3] is 0.5004.

In the case of `COc1ccc([N+](=O)[O-])cc1NC(=O)/C=C/c1ccccc1` [Compound 16], the half-maximal inhibitory concentration (IC50) in data set [1] (setting [4]) is over 35 µM. Further, the “Mtb MIC” value in data set [2] was over 859 µM. Also, the log k in data set [3] is listed as 0.1581.

On to `O=C(/C=C/c1ccccc1)Nc1ccc(Br)cc1Cl` [Compound 24, (2E)-N-(4-bromo-2-chlorophenyl)-3-phenylprop-2-enamide], for which, in data set [1] (setting [4]), the IC50 came to 0.58 ± 0.002 µM. In addition, the “Mtb MIC” value in data set [2] is over 766 µM. In addition, in data set [3], the log k is 0.6710.

As to `NNC(=O)c1ccncc1` [INH, isoniazid, reference compound], the “Mtb MIC” value in data set [2] is 36.6 µM.

Turning to `O=C(/C=C/c1ccccc1)Nc1c(Br)cc(C(F)(F)F)cc1Br` [Compound 36, (2E)-N-[2,6-dibromo-4-(trifluoromethyl)-phenyl]-3-phenylprop-2-enamide], in data set [1] (setting [4]), the IC50 is 2 ± 1.9 µM. Moreover, the “Mtb MIC” value in data set [2] is over 287 µM. The molecule also gave a log k in data set [3] of 0.4321.

As to `O=C(/C=C/c1ccccc1)Nc1cc(Cl)c(Cl)c(Cl)c1` [Compound 35, (2E)-3-phenyl-N-(3,4,5-trichlorophenyl)prop-2-enamide], the IC50 in data set [1] (setting [4]) was determined as 13 ± 3.8 µM. For the same molecule, the “Mtb MIC” value in data set [2] is over 395 µM. Also, in data set [3], the log k is listed as 0.9671.

In the case of `O=C(/C=C/c1ccccc1)Nc1cc(C(F)(F)F)ccc1Cl` [Compound 27], the IC50 in data set [1] (setting [4]) was over 35 µM. Further, the “Mtb MIC” value in data set [2] is 785 µM. The same molecule returned a log k in data set [3] of 0.6178.

Regarding `Cc1cccc(NC(=O)/C=C/c2ccccc2)c1` [Compound 2, (2E)-N-(3-methylphenyl)-3-phenyl-prop-2-enamide], the IC50 was determined as 21.6 µM in data set [1] (setting [4]) and 21.9 ± 6.3 µM in data set [1]. Moreover, the “Mtb MIC” value in data set [2] is 67.4 µM. For the same molecule, the log k in data set [3] worked out at 0.2729.

In the case of `O=C(/C=C/c1ccccc1)Nc1c(Br)cccc1Br` [Compound 14], in data set [1] (setting [4]), the 50% inhibitory concentration (IC50) is over 35 µM. The “Mtb MIC” value in data set [2] is 167 µM. Further, the log k in data set [3] was 0.0992.

As for `O=C(/C=C/c1ccccc1)Nc1cc(F)ccc1Br` [Compound 23, (2E)-N-(2-bromo-5-fluorophenyl)-3-phenylprop-2-enamide], the half-inhibitory concentration (IC50) in data set [1] (setting [4]) came to 3.8 ± 0.61 µM. The “Mtb MIC” value in data set [2] was 199 µM. In data set [3], this molecule returned a log k of 0.4588.

For the molecule `CCN(CC)CCCC(C)Nc1ccnc2cc(Cl)ccc12` (stereo not shown) [CQ, chloroquine, reference compound], the IC50 in data set [1] (setting [4]) worked out at 0.5 ± 0.2 µM.

`O=C(/C=C/c1ccccc1)Nc1ccc(Br)cc1C(F)(F)F` [Compound 31]: the IC50 in data set [1] (setting [4]) was over 35 µM. Also, in data set [2], the “Mtb MIC” value was over 348 µM. For the same molecule, in data set [3], the log k was found to be 0.4683.
